Laboratory results published in US10717764B2, “Therapeutically active compounds and their methods of use” (Agios Pharmaceuticals, Inc., priority 2013, dated 2020).

Assays:
[1] = tested on: U87MG cells (2-HG production); experiment: Cellular assay, inhibition of 2-HG production in U87MG cells; assay type: cell-based
Experimental: (§1) Cells (HT1080 or U87MG) are grown in T125 flasks in DMEM containing 10% FBS, 1× penicillin/streptomycin and 500 ug/mL G418 (present in U87MG cells only). They are harvested by trypsin and seeded into 96 well white bottom plates at a density of 5000 cell/well in 100 ul/well in DMEM with 10% FBS. […] Cells are incubated overnight at 37° C. in 5% CO2. The next day test compounds are made up at 2× the final concentration and 100 ul are added to each cell well. The final concentration of DMSO is 0.2% and the DMSO control wells are plated in row G. The plates are then placed in the incubator for 48 hours. […] The cell plate is placed back in the incubator for another 24 hours. At 72 hours post compound addition, 10 mL/plate of Promega Cell Titer Glo reagent is thawed and mixed. The cell plate is removed from the incubator and allowed to equilibrate to room temperature. Then 100 ul of Promega Cell Titer Glo reagent is added to each well of media. The cell plate is then placed on an orbital shaker for 10 minutes and then allowed to sit at room temperature for 20 minutes. The plate is then read for luminescence with an integration time of 500 ms.

[2] = tested on: HT1080 cells (2-HG production); experiment: Cellular assay, inhibition of 2-HG production in HT1080 cells; assay type: cell-based; details: Homo sapiens, HT-1080, 48 h
Experimental: as §1

[3] = inhibition of 2-HG production, U87MG cells, 48 hours

Compound | IC50 ([1]; Homo sapiens, U-87 MG, 48 h) [nM] | IC50 [1, 3] [nM] | also measured
O=C(N[C@H]1CCC(F)(F)C1)[C@H](c1ccccc1Cl)N(C(=O)[C@@H]1CCC(=O)N1c1ncccn1)c1cccc(F)c1 (stereo in doubt) [Compound 73] | < 100 |  | 
O=C(NC1CCCCC1)[C@@H](c1ccccc1Cl)N(C(=O)[C@@H]1CCC(=O)N1c1ncccn1)c1cccc(F)c1 [Compound 6] |  |  | IC50 [2]: 100 to 500 nM
N#Cc1ccnc(N2C(=O)CC[C@H]2C(=O)N(c2cc(F)cc(F)c2)[C@H](C(=O)NC2CC(F)(F)C2)c2ccccc2F)c1 [Compound 208, (S)-1-(4-Cyanopyridin-2-yl)-N—((S)-2-(3,3-difluorocyclobutylamino)-1-(2-fluorophenyl)-2-oxoethyl)-N-(3,5-difluorophenyl)-5-oxopyrrolidine-2-carboxamide] | < 100 |  | 
(S)-tert-butyl 3-(((S)-1-(2-chlorophenyl)-2-((3,3-difluorocyclobutyl) amino)-2-oxoethyl)(3,5-difluorophenyl)carbamoyl)-5-oxopiperazine-1-carboxylate [Compound 97] |  | < 100 | 
(S)—N—((S)-1-(2-Chlorophenyl)-2-(3,3-difluorocyclobutylamino)-2-oxoethyl)-1-(3-cyano-phenyl)-N-(1H-indazol-7-yl)-5-oxopyrrolidine-2-carboxamide [Compound 186] |  | < 100 | 
(S)—N—((S)-1-(2-Chlorophenyl)-2-(3,3-difluorocyclobutylamino)-2-oxoethyl)-N-(3-cyano-5-fluorophenyl)-3-(3-cyanophenyl)-2-oxooxazolidine-4-carboxamide [Compound 134] |  | < 100 | 
(S)—N—((S)-1-(2-Chlorophenyl)-2-((3,3-difluorocyclobutyl)amino)-2-oxoethyl)-1-(4-cyanopyridin-2-yl)-N-(1H-indazol-6-yl)-5-oxopyrrolidine-2-carboxamide [Compound 205] |  | < 100 | 
(S)—N—((S)-1-(2-Chlorophenyl)-2-((4,4-difluorocyclohexyl)amino)-2-oxoethyl)-1-(4-cyanopyridin-2-yl)-N-(1H-indazol-6-yl)-5-oxopyrrolidine-2-carboxamide [Compound 136] |  | < 100 | 

Now from value to compound, other results behind:

IC50 ([1]; Homo sapiens, U-87 MG, 48 h) [nM] | IC50 [1, 3] [nM] | Compound | also measured
< 100 |  | C[C@]1(O)C[C@@H](C(=O)N(c2cccc(F)c2)[C@H](C(=O)NC2CC(F)(F)C2)c2ccccc2Cl)N(c2cc(C#N)ccn2)C1=O (stereo in doubt) [Compound 183, (2S)—N—((R)-1-(2-chlorophenyl)-2-(3,3-difluorocyclobutylamino)-2-oxoethyl)-1-(4-cyanopyridin-2-yl)-N-(3-fluorophenyl)-4-hydroxy-4-methyl-5-oxopyrrolidine-2-carboxamide] | 
100 to 500 |  | O=C(NC1CC(F)(F)C1)[C@H](c1ccccc1Cl)N(C(=O)[C@@H]1CCC(=O)N1c1ccccn1)c1cccc(F)c1 [Compound 5] | 
< 100 |  | CS(=O)(=O)c1cc(F)cc(N(C(=O)[C@@H]2CCC(=O)N2c2cc(C#N)ccn2)C(C(=O)NC2CC(F)(F)C2)c2ccccc2Cl)c1 (stereo partly drawn) [Compound 110, (2S)—N-(1-(2-Chlorophenyl)-2-((3,3-difluorocyclobutyl)amino)-2-oxoethyl)-1-(4-cyanopyridin-2-yl)-N-(3-fluoro-5-(methylsulfonyl)phenyl)-5-oxopyrrolidine-2-carboxamide] | 
 | < 100 | N#Cc1cccc(N2C(=O)OC[C@H]2C(=O)N(c2cccc3cn[nH]c23)[C@H](C(=O)NC2CCC(F)(F)CC2)c2ccccc2Cl)c1 [Compound 142, (S)—N—((S)-1-(2-Chlorophenyl)-2-(4,4-difluorocyclohexylamino)-2-oxoethyl)-3-(3-cyanophenyl)-N-(1H-indazol-7-yl)-2-oxooxazolidine-4-carboxamide] | 
 | < 100 | (S)—N—((S)-1-(2-Chlorophenyl)-2-((3,3-difluorocyclobutyl)amino)-2-oxoethyl)-1-(4-cyanopyridin-2-yl)-N-(3,5-difluorophenyl)-5-oxopyrrolidine-2-carboxamide [Compound 71] | 
